Results on 6 molecules are retold here after article PMC11718441, “Bis-3-chloropiperidines: a novel motif for anthelmintic drug design” (RSC Advances, 2025).

Values after ≈ are worked out from the molar mass of the structure shown. “Also recorded” adds a separate entry of the source. Read-outs that look alike come from different tables or passages of the source.

One data set deals with C. elegans N2. Kind of data set: whole plant or invertebrate. The conditions noted are these: Caenorhabditis elegans, 48 h, read-out: MMIC N2. Format: cell-based, Caenorhabditis elegans. An excerpt:
(§1) The cuticle of C. elegans strain DC19 is known to be more permeable for small molecules compared to the wildtype N2.[30] DC19 is thereby considered an informative drug-sensitive test organism. In our assays, we determined the minimum mobility inhibitory concentration (MMIC) as a proxy for anthelmintic activity. […] In contrast, MMICs of some small molecule anthelmintics such as albendazole, mebendazole or PF-1022A were lower for DC19 (Fig. S1 ^†). […]
(§2) 2.2 In vitro tests against Caenorhabditis Elegans
(§3) The minimal motility inhibitory concentration (MMIC) of compounds 1-22 against C. elegans was determined as described before.3 Both strains, C. elegans N2 and DC19 were treated identically. Briefly, pre-cultures of C.elegans were kept on NGM agar plates infused with auxotrophic E.coli OP50 as food source.4 After 4 days the plates contained sufficient gravid worms, respectively. Worms were washed from the plates with M9 buffer using wide bore pipette tips. Egg preparation was carried out by treating the harvested worms with an alkaline hypochlorite solution (5 M NaOH + 5 % NaOCl 1:2) in polypropylene tubes. Larvae and adult […]
(§4) We carried out 3 washing steps (M9 buffer) to remove carry-over hypochlorite solution. Subsequently, the eggs were incubated overnight in NGM broth on a rotator to yield synchronized hatched L1/L2 larvae. The larvae solution was adjusted to 100 worms/mL and supplemented with cholesterol (5 µg/mL), carbenicillin (25 µg/mL) and E.coli OP50 (0.5%). This assay solution was distributed into 96 well plates and incubated with a dilution series of compounds 1-22 (64-0.5 µg/mL). An additional eight-point dilution series of ivermecin (40 – 0.3 ng/mL) was used as positive control on each assay plate. Solvent background was controlled by supplementation of pure DMSO without any compound. Assays were incubated for 2 days at room temperature. Finally, a cell imaging multimode reader (Cytation™ 5) was used to record short videos (1.5 seconds) of each individual test well. The videos were used to evaluate the worm motility.

Another data set concerns C. elegans DC19. Kind of data set: whole plant or invertebrate. Format: cell-based, Caenorhabditis elegans. The settings on record: Caenorhabditis elegans, 48 h, read-out: MMIC DC19.
Excerpt: as §1, §2, §3, §4

The subject of a further data set is Schistosoma mansoni. Kind of data set: In vitro tests against Schistosoma mansoni (vitality parameters of adult worm pairs). Format: cell-based. The settings on record: for activity against S. mansoni (100% effect strength in one parameter within 7 days = active): 10 or 20 μM; for lethal effects: after seven days; for sucker detachment: after three days; for Effect on S. mansoni: 10 and 20 μM, up to 7 days, Det: detachment of suckers, Mot: motility reduction, Sep: pair separation. The method, then: Subsequently, we tested whether compounds with nematocidal activity display a broader activity also against parasitic flatworms. To this end, in vitro tests against the blood fluke S. mansoni were conducted (Fig. 4). The worms were incubated in presence of 10 and 20 μM of compounds 1–22 and phenotypic vitality parameters (separation of worm pairs, detachment of suckers from the bottom of the well and weakening of body movements) were assessed as previously described.[31] Compounds reaching 100% effect strength in one of the parameters within 7 days were considered active. Reduction of motility is considered most relevant for antischistosomal drug candidates.[32] In addition, loss of sucker activity would make parasites drifting off from their host habitat (mesenteric veins) and with pair separation, the production of pathology-causing eggs eventually ceases.[33] […] For some molecular targets e.g. glutamate and GABA chloride channels (ivermecin, abamectin) and β-tubulin (albendazole, mebendazole) the C. elegans assays results were transferable to Schistosoma, while for others e.g. acetylcholin mimetic (levamisole) the C. elegans MMIC was not predicative (Fig. S1 ^†).
2.2 Parasitological studies
Animal experiments were performed in accordance with Directive 2010/63/EU on the protection of animals used for scientific purposes and the German Animal Welfare Act. The experiments were approved by the Regional Council (Regierungspraesidium) Giessen (V54 – […]
A Liberian strain of S. mansoni was maintained in the freshwater snail Biomphalaria glabrata as intermediate host and Syrian hamsters (Mesocricetus auratus) as final host (Janvier Labs, France).5,6 Hamsters were infected at 8 weeks of age with 1,750 cercariae by using the paddling method.7 Adult worms were collected at 46 days p.i. by hepatoportal perfusion and cultured in M199 medium (Sigma-Aldrich, Germany) supplemented with 10% Newborn Calf Serum (NCS, Sigma-Aldrich), 1% 1 M HEPES (ThermoFisher Scientific, USA) and 1% ABAM solution (10,000 units/ml penicillin, 10 mg/ml streptomycin and […] amphotericin B; Sigma-Aldrich, Germany) at 37 °C, 5% CO2 and humidified atmosphere.
2.2.3. In vitro tests against Schistosoma mansoni
Test compounds were added at 10 µM or 20 µM in supplemented M199 medium to schistosomes (5 worm pairs per replicate) followed by a 7 d in vitro culture. Worms receiving the solvent DMSO at equal dilution served as negative control. The following vitality parameters were assessed every 24 h by bright field microscopy using a Leica DM IL inverted microscope and x2.5 objective lens: separation of worm pairs into male and female worms; detachment of suckers from the bottom; and weakening of body movements. Worm motility was scored as described previously, 8 with the scores 3 (normal motility), 2 (reduced motility), 1 (minimal and sporadic movements), 0 (no movements within 20 sec; dead worms). An average score of all worms per well was calculated to obtain a motility score. An average motility score of 0, separation of all pairs or detachment of all worms per well was considered

The test system of data set [1] is Septoria tritici MUCL45408. Kind of data set: Minimum inhibitory concentration (MIC), S. tritici (ATP quantification). It counts as cell-based. The settings on record: Zymoseptoria tritici, MUCL45408, 96 h, read-out: MIC St. On the procedure: (§5) The minimum inhibitory concentration (MIC) of the synthesized compounds was initially determined against three microbial indicator strains (Escherichia coli ATCC35218, […] ATCC33592, Septoria tritici MUCL45408). […]
(§6) 2. Microbial and parasitological studies
(§7) The minimum inhibitory concentration (MIC) of the synthesized compounds was determined against three microbial indicator strains (E. coli ATCC35218, S. aureus ATCC33592 and S. tritici MUCL45408) as previously described.1,2 All samples were dissolved in DMSO and tested in triplicate. Briefly, a pre-culture of E. coli and S. aureus was prepared by incubating the strains in cation adjusted Mueller Hinton 2 broth (Becton Dickinson, Sparks, NV, USA) at 37°C and 180 rpm overnight. The cell density of adjusted to 5 × 10^5 cells/mL before assays were incubated at 37 °C, 180 rpm and 85% rH. Three distinct dilution series of standard antibiotics (gentamicin, rifampicin, and tetracycline) were used as positive controls on each assay plate. Inoculated medium without test compound or positive control was used as negative control.
Medium background was averaged from 5 replicates. The turbidity of each well was measured with a microplate spectrophotometer at 600 nm (LUMIstar® Omega, BMG Labtech) and growth inhibition was calculated relative to the absorption of the controls. For S. tritici MUCL45408 inoculated at a density of 1 × 10^5 cells/mL in potato […]
dextrose medium. Septoria assay plates were incubated for 4 days at 25 °C, 180 rpm and 85% rH. Tebuconazole, amphotericin B, and nystatin were used as positive controls. Cell viability was evaluated via ATP quantification (BacTiter-Glo™, Promega GmbH, Walldorf, Germany) according to the manufacturer’s instructions. […]

A further data set relates to MDCK II cells. Kind of data set: In vitro cytotoxicity, CellTiter-Glo, MDCK II cells. The settings on record: 100 μM; for MDCKII cytotoxicity: 48 h, cell viability less than 80% relative to DMSO control = cytotoxic.
The subject of data set [2] is C. elegans strains N2 and DC19. Kind of data set: MMIC against C. elegans, strains N2 and DC19 reported together or strain not stated. The settings on record: Caenorhabditis elegans, 48 h. It counts as cell-based.
Excerpt: as §1, §2, §3, §4

The subject of another data set is S. aureus ATCC33592. Kind of data set: microbe, parasite or virus in culture. It counts as cell-based. The conditions noted are these: Staphylococcus aureus, ATCC33592, read-out: MIC Sa. On the procedure: as §5, §6
as §7, with “and tetracycline) were used as positive controls on each assay plate. Inoculated medium without test compound or positive control was used as negative control.” left out
(§8) medium without test compound or positive control was used as negative control.
(§9) Medium background was averaged from 5 replicates. The turbidity of each well was […]

For data set [3], the system named is Escherichia coli ATCC35218. Kind of data set: microbe, parasite or virus in culture. The settings on record: ATCC35218, read-out: MIC Ec. It counts as cell-based. The method, then: as §5, §6
as §7, with “and tetracycline) were used as positive controls on each assay plate. Inoculated medium without test compound or positive control was used as negative control.” left out
as §8, §9

Another data set is described as follows: in vitro. The conditions noted are these: dog.
The mark [4] stands for this setting: C. elegans, read-out: MMIC N2 and DC19.

Regarding `COC(=O)c1cc(CN2CC(Cl)CC(C)(C)C2)cc(CN2CC(Cl)CC(C)(C)C2)c1` (stereo not shown) [Compound 4], the minimal effective concentration is 16 µg/mL in the data set on C. elegans N2, 16 µg/mL in the data set on C. elegans DC19 and < 20 µg/mL in data set [2] (setting [4]). In addition, the “activity against S. mansoni (100% effect strength in one parameter within 7 days = active)” value with Schistosoma mansoni is listed as “no activity”. For the same molecule, the MIC (in data set [1]; in the data set with S. aureus ATCC33592; in data set [3]) was > 64 µg/mL each time. Also, the MDCKII cytotoxicity entry in the data set with MDCK II cells is “− (“−” (not toxic))”. In “in vitro”, the CC50 was found to be 205 µM.

Take `CN(C)c1cc(CN2CC(Cl)CC(C)(C)C2)cc(CN2CC(Cl)CC(C)(C)C2)c1` (stereo not shown) [Compound 3]: the minimal effective concentration in the data set with C. elegans N2 was 16 µg/mL; in [2] (setting [4]), < 20 µg/mL. Also, the lethal effects result in the data set with Schistosoma mansoni (20 μM) is reported as “lethal effects”. For the same molecule, in the data set with Schistosoma mansoni (20 μM), the sucker detachment result is “sucker detachment already after three days”. For the same molecule, the “activity against S. mansoni (100% effect strength in one parameter within 7 days = active)” value in the data set with Schistosoma mansoni is recorded as “showed an effect on S. mansoni”. Besides, the MIC (in data set [1]; with S. aureus ATCC33592; in [3]) was > 64 µg/mL in each case. Besides, in the data set with MDCK II cells, the “cytotoxicity against MDCK II (in words)” value is on record as “cytotoxic”. Also, the MDCKII cytotoxicity entry in the data set with MDCK II cells is recorded as “+ (“+” (toxic))”.

For the molecule `CC1(C)CC(Cl)CN(Cc2cc(CN3CC(Cl)CC(C)(C)C3)cc(CN3CC(Cl)CC(C)(C)C3)c2)C1` (stereo not shown) [Compound 21], in the data set on Schistosoma mansoni, the “activity against S. mansoni (100% effect strength in one parameter within 7 days = active)” value is given as “did not affect Schistosoma”. Further, the MIC (in data set [1]; in the data set with S. aureus ATCC33592; in [3]) was > 64 µg/mL throughout. The “cytotoxicity against MDCK II (in words)” value in the data set on MDCK II cells was “did not exhibit cytotoxic properties”. Moreover, the MDCKII cytotoxicity entry in the data set on MDCK II cells is reported as “− (“−” (not toxic))”. Further, in data set [2] (setting [4]), the minimal effective concentration is < 20 µg/mL. Moreover, the CC50 in the data set “in vitro” was > 1000 µM.

Regarding `COC(=O)[C@H](CCCCN1CC(Cl)CC(C)(C)C1)N1CC(Cl)CC(C)(C)C1` (stereo partly shown) [Compound 11], the minimal effective concentration with C. elegans N2 and in the data set on C. elegans DC19 was > 64 µg/mL in each case. Moreover, the “detachment of suckers and pair separation” value with Schistosoma mansoni (20 μM, after 7 days incubation) was “detachment of suckers and pair separation”. Further, the “Effect on S. mansoni” value in the data set on Schistosoma mansoni is reported as “Det, Sep”. Also, the “activity against S. mansoni (100% effect strength in one parameter within 7 days = active)” value with Schistosoma mansoni is “Schistosoma-specific; also recorded: active at 20 μM”. Moreover, the MIC (in [1]; in the data set with S. aureus ATCC33592; in data set [3]) was > 64 µg/mL throughout. In addition, the MDCKII cytotoxicity result in the data set on MDCK II cells is on record as “− (“−” (not toxic))”. In the data set “in vitro”, this molecule displayed a CC50 of 123 µM.

Take `CC1(C)CC(Cl)CN(CCN2CC(Cl)CC(C)(C)C2)C1` (stereo not shown) [Compound 15]: the minimal effective concentration was > 64 µg/mL in the data set on C. elegans N2; > 64 µg/mL in the data set with C. elegans DC19; ≥ 64 µg/mL in data set [2] (read-out: MMIC N2 and DC19, C. elegans). The MIC (in [1]; with S. aureus ATCC33592; in data set [3]) was > 64 µg/mL each time. Also, the MDCKII cytotoxicity result with MDCK II cells was “+ (“+” (toxic))”.

In the case of `COc1cc(CN2CC(Cl)CC(C)(C)C2)cc(CN2CC(Cl)CC(C)(C)C2)c1` (stereo not shown) [Compound 2], in the data set with Schistosoma mansoni (20 μM), the lethal effects entry was “lethal effect” and the sucker detachment result is “sucker detachment already after three days”. Also, in the data set on Schistosoma mansoni, the “Effect on S. mansoni” value is “Det, Sep, Mot, Lethal” and the “activity against S. mansoni (100% effect strength in one parameter within 7 days = active)” value is listed as “showed an effect on S. mansoni; also recorded: active at 20 μM”. Also, the MIC in data set [1] worked out at 64 µg/mL (≈ 150 µM). For the same molecule, in the data set with MDCK II cells, the “cytotoxicity against MDCK II (in words)” value is reported as “did not exhibit cytotoxic properties” and the MDCKII cytotoxicity result is reported as “− (“−” (not toxic))”. The minimal effective concentration in [2] (setting [4]) was < 20 µg/mL. Also, the MIC in the data set on S. aureus ATCC33592 was > 64 µg/mL. Also, the MIC in data set [3] is > 64 µg/mL. The CC50 in the data set “in vitro” turned out to be 83 µM.
